Data as given in US12606528B2, “Methods and materials for inhibiting NF-kB activity” (University of Pittsburgh - Of the Commonwealth System of …, priority 2019, dated 2026).
Like-named read-outs stand apart in the source and are kept apart here.

Tests used:
[1] = tested on: NF-κB; test: NF-κB assay: THP1-NF-κB-LUC cells, LPS-stimulated secreted luciferase; type: cell-based; settings: THP1-NF-κB-LUC cells, read-out: IC50 (NF-κB assay)
How it was run: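 THP1-NF-κB-LUC cells (25k/well) were pretreated with compounds for 2 h, then stimulated with LPS (10 ng/mL) for 18 h. Secreted luciferase was measured and normalized to vehicle, and IC50 was fitted from the concentration series.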

[2] = tested on: TNF release; test: TNF assay: TNF release from LPS-stimulated human PBMCs (TNF ELISA); type: cell-based; settings: PBMC, read-out: IC50 (TNF assay)
Protocol: 25k THP1-NF-κB-LUC cells were dispensed into 384 well plate (per well). Cells were treated with compounds with various concentrations for 2 hours before addition of LPS (10 ng/mL) for 18 hours. Secreted luciferase activity were measured using quant-luc reagents (1 bag of luc reagent dilute to 40 mL, use 10 μL per well). Data were normalized to vehicle control and graphed. Compound IC50 towards inhibiting NF-κB were determined through Prism. Similarly, 10k human PBMCs cells were cultured in 384 well plate (per well). Cells were treated with compounds with various concentrations for 2 hours before addition of LPS (10 ng/ml) for 18 hours, and supernatants were collected and assayed for TNF ELISA. Compound IC50 towards inhibiting TNF release were determined through Prism. • Activity: “+”>10 μM, “++”>1 μM and <10 μM, “+++”>0.1 μM and <1 μM, “++++”<0.1 μM.

[3] = LPS-stimulated human PBMCs, TNF ELISA
[4] = compounds 2 hours before LPS (10 ng/mL) for 18 hours, secreted luciferase
[5] = human PBMCs, compounds 2 hours before LPS (10 ng/ml) for 18 hours, supernatant TNF ELISA

SMILES	IC50 ([1]; LPS-stimulated) [nM]	IC50 [2, 3] [nM]	IC50 [1, 4] [nM]	IC50 [2, 5] [nM]
CS(=O)(=O)c1oc(-c2ccccc2)nc1S(=O)(=O)c1cccc(F)c1 [BC19261]	< 100	> 10000	–	–
CS(=O)(=O)c1oc(-c2ccccc2)nc1S(=O)(=O)c1ccc(F)c(F)c1 [BC19262]	100 to 1000	< 100	–	–
Cc1ccc(S(=O)(=O)c2nc(-c3ccccc3)oc2S(=O)(=O)C(C)C)cc1 [BC19263]	100 to 1000	100 to 1000	–	–
CCCS(=O)(=O)c1oc(-c2ccccc2)nc1S(=O)(=O)c1ccc(C)cc1 [BC19264]	< 100	100 to 1000	–	–
Cc1ccc(S(=O)(=O)c2nc(-c3ccccc3)oc2S(=O)(=O)CC2CC2)cc1 [BC19265]	< 100	100 to 1000	–	–
COCCS(=O)(=O)c1oc(-c2ccccc2)nc1S(=O)(=O)c1ccc(C)cc1 [BC19266]	< 100	< 100	–	–
Cc1ccc(S(=O)(=O)c2nc(-c3ccccc3)oc2S(=O)(=O)C2CCCCC2)cc1 [BC19267]	< 100	100 to 1000	–	–
CCC[S+]([O-])c1oc(-c2ccccc2)nc1S(=O)(=O)c1cccc(F)c1 (stereo not drawn) [BC19268]	100 to 1000	< 100	–	–
CC(C)S(=O)(=O)c1oc(-c2ccccc2)nc1S(=O)(=O)c1cccc(F)c1 [BC19269]	100 to 1000	< 100	–	–
CC(C)CS(=O)(=O)c1oc(-c2ccccc2)nc1S(=O)(=O)c1cccc(F)c1 [BC19270]	< 100	< 100	–	–
O=S(=O)(CC1CC1)c1oc(-c2ccccc2)nc1S(=O)(=O)c1cccc(F)c1 [BC19271]	100 to 1000	< 100	–	–
COCC[S+]([O-])c1oc(-c2ccccc2)nc1S(=O)(=O)c1cccc(F)c1 (stereo not drawn) [BC19272]	< 100	< 100	–	–
CCCS(=O)(=O)c1oc(-c2ccccc2)nc1S(=O)(=O)c1ccc(F)c(F)c1 [BC19273]	100 to 1000	100 to 1000	–	–
CC(C)S(=O)(=O)c1oc(-c2ccccc2)nc1S(=O)(=O)c1ccc(F)c(F)c1 [BC19274]	< 100	100 to 1000	–	–
CC(C)CS(=O)(=O)c1oc(-c2ccccc2)nc1S(=O)(=O)c1ccc(F)c(F)c1 [BC19275]	< 100	< 100	–	–
COCCS(=O)(=O)c1oc(-c2ccccc2)nc1S(=O)(=O)c1ccc(F)c(F)c1 [BC19276]	100 to 1000	< 100	–	–
O=S(=O)(c1ccc(F)c(F)c1)c1nc(-c2ccccc2)oc1S(=O)(=O)C1CCCCC1 [BC19277]	< 100	100 to 1000	–	–

SMILES	IC50 ([1]; LPS-stimulated) [nM]	IC50 [2, 3] [nM]	IC50 [1, 4] [nM]	IC50 [2, 5] [nM]
CC(C)CS(=O)(=O)c1oc(-c2ccccc2)nc1S(=O)(=O)c1ccc(Cl)cc1 [BC19278]	< 100	< 100	–	–
CS(=O)(=O)c1sc(-c2ccccc2)nc1S(=O)(=O)c1ccc(F)c(F)c1 [BC19279]	100 to 1000	100 to 1000	–	–
COc1ccc(NS(=O)(=O)c2cc3c(cc2Cl)NC(=O)C(C)O3)cc1Cl (stereo not drawn) [BC19280]	–	–	1000 to 10000	> 10000
CCOc1ccc(NS(=O)(=O)c2cc3c(cc2Cl)NC(=O)C(C)O3)cc1 (stereo not drawn) [BC19281]	–	–	100 to 1000	> 10000
CCC1Oc2cc(S(=O)(=O)Nc3cccc(C(C)=O)c3)c(Cl)cc2NC1=O (stereo not drawn) [BC19282]	–	–	100 to 1000	> 10000
CCc1cccc(NS(=O)(=O)c2cc3c(cc2Br)NC(=O)C(C)O3)c1 (stereo not drawn) [BC19283]	–	–	100 to 1000	> 10000
CC1Oc2cc(S(=O)(=O)Nc3ccc(F)c(F)c3)c(Br)cc2NC1=O (stereo not drawn) [BC19284]	–	–	< 100	> 10000
CC1Oc2cc(S(=O)(=O)Nc3ccc(F)cc3Cl)c(Br)cc2NC1=O (stereo not drawn) [BC19285]	–	–	1000 to 10000	> 10000
CCC1Oc2cc(S(=O)(=O)Nc3ccc(Cl)cc3)c(Br)cc2NC1=O (stereo not drawn) [BC19286]	–	–	< 100	> 10000
CCC1Oc2cc(S(=O)(=O)NCc3ccccc3)c(Br)cc2NC1=O (stereo not drawn) [BC19287]	–	–	1000 to 10000	> 10000
CCc1cccc(NS(=O)(=O)c2cc(Br)cc3c2OC(C)C(=O)N3)c1 (stereo not drawn) [BC19288]	–	–	< 100	> 10000
CC1Oc2c(cc(Br)cc2S(=O)(=O)Nc2ccc(F)cc2Cl)NC1=O (stereo not drawn) [BC19289]	–	–	< 100	> 10000
CCC1Oc2c(cc(Br)cc2S(=O)(=O)Nc2ccc(Cl)cc2)NC1=O (stereo not drawn) [BC19290]	–	–	< 100	> 10000
CC1Oc2c(cc(Cl)cc2S(=O)(=O)Nc2ccccc2)NC1=O (stereo not drawn) [BC19291]	–	–	< 100	> 10000
COc1ccc(NS(=O)(=O)c2cc(Cl)cc3c2OC(C)C(=O)N3)cc1Cl (stereo not drawn) [BC19292]	–	–	< 100	> 10000
CC(C)NS(=O)(=O)c1cc(Cl)cc2c1OC(C)C(=O)N2 (stereo not drawn) [BC19293]	–	–	100 to 1000	> 10000
